Assay results published in patent US7232805B2, “Cobalamin conjugates for anti-tumor therapy” (Inflabloc Pharmaceuticals, Inc., priority 2003, dated 2007).

Columns and labels:
[1] = test system: MX-1 human breast carcinoma xenograft; assay: tumor growth delay, MX-1 xenograft, single-cycle dosing (Example 3); conditions: 3 mg/kg/day x 5 days intravenous
Method: Test articles were administered on the day of pair matching, Day 1.
The upper limit of acceptability is 20% weight loss.

[2] = test system: MX-1 human breast carcinoma xenograft; assay: tumor growth delay, MX-1 xenograft, two-cycle dosing (Example 11); conditions: 2-cycle
Method: The following procedure was used to investigate the tumor growth delay effects of the conjugate, particularly for the treatment of MX-1 human breast carcinoma xenograft in athymic mice using a two-cycle dosing regimen. Female nude Harlan mice are implanted subcutaneously with 1 mm^3 MX 1 solid tumor fragments in the flank. During the pre-dose phase of implantation and growth, tumors are initially monitored twice weekly, and then daily as the neoplasms approach the desired size of 80-120 mg. When the majority of tumors reached the targeted weight range (80-120 mg), mice are pair-matched into 5 treatment groups of 10 mice each. For purposes of this illustrationon the effect of 2-cycles of treatment, data from 3 groups are shown: no treatment, 3 mg/kg/day (days 1-5, 21-25) intravenous Doxorubicin and 24 mg/kg/day (days 1-5, 21-25) intravenous bioconjugate. Test article administration began on this day, referred to as Day 1. The tumor growth delay endpoint is reached when the tumor on the mouse reaches 1.5 gm weight estimated by the formula: Tumor weight (mg)=w^2×l/2×1 mg/mm^3, where w=width (mm) and l=length (mm) of the tumor. The median time to endpoint is calculated for each treatment group.

[3] = systemic toxicity / MTD of free doxorubicin versus conjugate on a molar basis (separate study); assay type: in vivo, mice

COc1cccc2c1C(=O)c1c(O)c3c(c(O)c1C2=O)C[C@@](O)(C(=O)CO)C[C@@H]3O[C@H]1C[C@H](N)[C@H](O)[C@H](C)O1 [Doxorubicin, doxorubicin, reference compound]
median delay in tumor growth (median time to endpoint, tumor 1.5 gm) [1]: 39.5 days
treatment or nontreatment related deaths [1]: no other treatment or nontreatment related deaths
long-term, tumor-free survivors ([1]; 10 mice): no long-term, tumor-free survivors
partial or complete tumor regressions ([1]; 10 mice): no partial or complete tumor regressions
time to endpoint longer than control mice ([2]; 3 mg/kg/day (days 1-5, 21-25) intravenous): at least 44 days
treatment or nontreatment related deaths ([2]; 3 mg/kg/day intravenous): no treatment or nontreatment related deaths
long-term, tumor-free survivors ([2]; 3 mg/kg/day intravenous, at 71 days): significant percentage
lethality at the same high molar dose ([3]; free doxorubicin at the same high molar dose as the conjugate): mice were killed by the free doxorubicin
MTD lower than for the conjugate on a molar basis ([3]; separate study): at least 2.3 times
